Source: patent US7183092B2, “Modified luciferase” (priority 2003, dated 2007)
Entries after “also recorded” stand apart in the source; their conditions may differ.

B1: CNBLuc03-02: modified Photinus pyralis luciferase: serine replaced by threonine at amino acid 239 and alanine replaced by threonine at amino acid 532 (protein, listed as Photinus pyralis)
chain: MEDAKNIKKGPAPFYPLEDGTAGEQLHKAMKRYALVPGTIAFTDAHIEVNITYAEYFEMSVRLAEAMKRYGLNTNHRIVVCSENSLQFFMPVLGALFIGVAVAPANDIYNERELLNSMNISQPTVVFVSKKGLQKILNVQKKLPIIQKIIIMDSKTDYQGFQSMYTFVTSHLPPGFNEYDFVPESFDRDKTIALIMNSSGSTGLPKGVALPHRTACVRFSHARDPIFGNQIIPDTAILTVVPFHHGFGMFTTLGYLICGFAVVLMYRFEEELFLRSLQDYKIQSALLVPTLFSFFAKSTLIDKYDLSNLHEIASGGAPLSKEVGEAVAKRFHLPGIRQGYGLTETTSAILITPEGDDKPGAVGKVVPFFEAKVVDLDTGKTLGVNQRGELCVRGPMIMSGYVNNPEATNALIDKDGWLHSGDIAYWDEDEHFFIVDRLKSLIKYKGYQVAPAELESILLQHPNIFDAGVAGLPDDDAGELPAAVVVLEHGKTMTEKEIVDYVASQVTTAKKFRGGVVFVDEVPKGLTGKLDTRKIREILIKAKKGGKSKL

Legend:
Assay type in all cases: biochemical, Photinus pyralis
[1] = Luciferase activity in the presence of anionic detergent SDS; conditions: FIG. 5; 20 ng purified luciferase, 0% ethanol, 33 mM DTT
Experimental: (§1) The stability of CNBLuc03-06 luciferase (SEQ ID NO: 4), both in purified form and in cell lysates, in the presence of a range of potential inhibitors was assayed. The basic assay contained 40 mM Tris-Acetate at pH 7.8, 1 mM MgSO4, 0.1 mM EDTA (ethylenediaminetetraacetic acid), 500 μM D-Luciferin and 500 μM ATP. Ethanol, DTT (dithiothreitol) and potential inhibitors were included at the concentrations stated.
(§2) The stability of CNBLuc03-06 luciferase (SEQ ID NO: 4) in the presence of Triton X-100 and SDS was determined using 20 ng of purified luciferase per sample using the basic assay conditions and in the presence of 0% ethanol and 33 mM DTT. The effect of detergents on wild type luciferase was determined previously by W. J. Simpson and J. R. M. Hammond (W. J. Simpson and J. R. M. Hammond, (1991) Journal of Bioluminescence & Chemiluminescence, 6. 97–106, incorporated herein by reference). They reported the anionic detergents inhibit luciferase activity, and cationic detergents and nonionic detergents increase the reaction rate when the concentration of detergent exceeds critical micelle concentration (CMC) value but only up to certain concentrations.
SDS was used for testing the effect of anionic detergents.

[2] = Stability of CNBLuc03-06 luciferase activity in the presence of HPV chemicals; conditions: FIG. 3, 1 mM DTT, 2.5% ethanol
Experimental: as §1
This effect was confirmed by repeated experiments. With 20 ng purified CNBLuc03-06 luciferase (SEQ ID NO: 4) and in the presence of 2.5% ethanol, 1 mM DTT and 86 mM chloroform an activation of approximately 50% was measured, compared with the absence of chloroform.
The capacity of a variety HPV chemicals to inhibit or activate both wild type luciferase and CNBLuc03-06 luciferase (SEQ ID NO: 4) activity compared to controls without HPV chemicals was tested. Higher concentrations of chloroform (172 mM), methylene chloride (318 mM) or toluene (2.7 mM) were used. The basic assay contained 20ng of purified CNBLuc03-06, 1 mM DTT and 2.5% ethanol. CNBLuc03-06 luciferase (SEQ ID NO: 4) was exposed to each chemical for less than 5 minutes before measuring the light output.

[3] = Luciferase activity in the presence of nonionic detergent Triton X-100; conditions: FIG. 4; Triton X-100 up to 5%, 20 ng purified luciferase, 0% ethanol, 33 mM DTT
Experimental: as §1, §2

[4] = Luciferase activity at different pHs; conditions: up to pH 11
Experimental: 20 ng of enzyme was used for each reaction. The pH was maintained at 7.8 by 40 mM Tris-acetate buffer and 33 mM DTT was added to each reaction. Both substrates, MGATP and D-Luciferin were saturated at 1 mM and 500 μM respectively. The values were normalized against the highest RLU (relative light units) at each pH optimum for comparison purpose. CNBLuc03-06 luciferase (SEQ ID NO: 4) has optimum pH of 9, but the high enough activity is retained at lower pHs in which enables us to use this mutant luciferase in case a wide range of pH is required for the assay (between 8–11).

[5] = Specific activity of luciferase in the absence of DTT; conditions: 0 mM DTT, pH 7.8, 1 mM ATP, 500 μM D-Luciferin, three replicates
Experimental: Dithiothreitol (DTT) is an enzyme stabilizing agent used to reduce disulfide bonds (break the bonds) that are not normally formed under physiological conditions. Both purified wild type luciferase and CNBLuc03-06 luciferase (SEQ ID NO: 4) were diluted to 2 μg/ml in 40 mM Tris Acetate buffer at pH 7.8. The assay contained 40 mM Tris-Acetate at pH 7.8, 1 mM MgSO4, 0.1 mM EDTA, 500 μM D-Luciferin, 1 mM ATP, and 0 mM DTT. The light output was measured over time and three replicate measurements were made for each luciferase. The average value of the highest light output reading obtained over time was used to determine specific activity of each enzyme.

[6] = Stability of CNBLuc03-02 luciferase activity in the presence of HPV solvents; conditions: FIG. 2, 33 mM DTT, 10% ethanol; for inhibition of luciferase activity by toluene: 0.5% toluene
Experimental: (§3) The stability of CNBLuc03-02 luciferase (SEQ ID NO: 2) in the presence of a range of potential inhibitors was assayed. The basic assay contained 40 mM Tris-Acetate at pH 7.8, 1 mM MgSO4, 0.1 mM EDTA (ethylenediaminetetraacetic acid), 500 μM D-Luciferin and 500 μM ATP. Ethanol, DTT (dithiothreitol) and potential inhibitors were included at the concentrations stated.
Toluene inhibited CNBLuc03-02 luciferase (SEQ ID NO: 2) activity by approximately 40% and wild type luciferase activity by approximately 80%.

[7] = Stability of CNBLuc03-02 luciferase activity in the presence of chloroform; conditions: 5% ethanol, 33 mM DTT, 10 μl cell lysates; for inhibition of luciferase activity by 0.8% CHCl3: 0.8% chloroform; for original activity maintained: FIG. 1, different concentrations of chloroform
Experimental: as §3

[8] = Quantitative in vitro screening of mutant luciferases with chloroform; conditions: cell lysate supernatant
Experimental: Selected colonies from secondary screening were inoculated and grown in 5 ml LB broth containing 100 μg/ml ampicillin at 30° C. overnight. When the OD660 reached approximately 1, bacterial cells were harvested from 1.5 ml of culture by centrifugation for 3 min at 12,000 rpm (Eppendorf centrifuge model 5415D). Harvested cells were resuspended in 1 ml of 40 mM Tris-Acetate buffer, pH 7.8, and sonicated for 10 seconds using a Branson Sonifer 450, Duty cycle-40 and output control-4. The activity of each luciferase sample, prepared using 10 μl of supernatant from a subsequent centrifugation of sonicated bacterial cell culture, was tested in 200 μl total reaction volume by a Luminometer (Perkin Elmer, model Victor II). Each assay contained 40 mM Tris-Acetate, 1 mM MgSO4, 0.1 mM EDTA (ethylenediaminetetraacetic acid), 33 mM DTT (dithiothreitol), 500 μM D-Luciferin, 10% Ethanol and 500 μM ATP at pH 7.8. Some screening assays also contained 68.8 mM chloroform (0.8% vol.).
Different mutant luciferases were compared quantitatively by determining the percentage (%) inhibition of luciferase activity in the presence of chloroform relative to a control without chloroform. The specific activities of chloroform-tolerant mutants were generally lower as compared to wild type. […] The nucleotide sequence of CNBLuc03-02 is SEQ ID No: 1. The polypeptide sequence of the product of SEQ ID No: 1 is SEQ ID No: 2.

| Molecule | effect of SDS on luciferase activity [1] | inhibition compared to controls, chloroform ([2]; chloroform 172 mM, exposure less than 5 minutes) | inhibition compared to controls, methylene chloride ([2]; methylene chloride 318 mM) | inhibition compared to controls, toluene ([2]; toluene 2.7 mM) | effect of Triton X-100 on luciferase activity [3] | activity at elevated pH [4] | specific activity (highest light output) [5] | inhibition of luciferase activity by toluene ([6]; 10 μl cell lysate) | inhibition of luciferase activity by 0.8% CHCl3 [7] | original activity maintained [7] | specific activity compared to wild type ([8]; screening assay) | inhibition of luciferase activity in the presence of chloroform relative to a control without chloroform ([8]; screening, 68.8 mM chloroform (0.8% vol.), 10% ethanol, 33 mM DTT) | inhibition of luciferase activity by HPV solvents other than toluene ([6]; 0.5% of CH2Cl2, hexane, xylene or heptane, 10 μl cell lysate) | inhibition by HPV solvents compared with wild type ([6]; 0.5% of each solvent (CH2Cl2, toluene, hexane, xylene, heptane)) |
| --- | --- | --- | --- | --- | --- | --- | --- | --- | --- | --- | --- | --- | --- | --- |
| wild type luciferase: amino acid sequence of luciferase of the species Photinus pyralis (SEQ ID NO: 6) [reference compound] | inhibited luciferase activity significantly | about 70% | about 70% | about 20% | activated by the nonionic detergent, Triton X-100, up to final concentration of 1.25%; also recorded: increased until 1.25% then it started decreasing | completely inhibit | 2.9±1.6×10^9 RLU/mg enzyme/sec | approximately 80% | over 80% | about 20% | – | – | – | – |
| B1 | – | – | – | – | – | – | – | approximately 40% | ~30% | 80% | comparable activity | inhibited much less by chloroform | ≤ 15% | not inhibited as much as wild-type luciferase |
